Source: BindingDB's records for doi:10.1016/j.chembiol.2004.03.022 (Cyclacel, 2004)
pIC50: −log10 of the molar value.

Experiments:
Test in all cases: Kinase Inhibition Assay
[1] = biological target: G1/S-specific cyclin-D1 (Homo sapiens, UniProt P24385)
Excerpt: (§1) In vitro kinase inhibition assay.

[2] = biological target: G1/S-specific cyclin-E1 (Homo sapiens, UniProt P24864)
Excerpt: as §1

[3] = biological target: Cyclin-dependent kinase 2 (Homo sapiens, UniProt P24941)
Excerpt: as §1

[4] = biological target: Cyclin-dependent kinase 4 (Homo sapiens, UniProt P11802)
Chain of Cyclin-dependent kinase 4 (P11802 whole entry): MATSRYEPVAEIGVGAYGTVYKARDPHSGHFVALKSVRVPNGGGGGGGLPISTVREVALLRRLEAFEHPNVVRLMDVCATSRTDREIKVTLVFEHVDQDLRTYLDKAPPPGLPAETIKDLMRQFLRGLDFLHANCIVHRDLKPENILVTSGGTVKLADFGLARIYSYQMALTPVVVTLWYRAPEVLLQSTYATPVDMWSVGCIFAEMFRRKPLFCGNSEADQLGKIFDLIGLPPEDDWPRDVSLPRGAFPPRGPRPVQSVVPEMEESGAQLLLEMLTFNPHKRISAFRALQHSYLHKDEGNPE
Excerpt: as §1

Chain of G1/S-specific cyclin-E1 (P24864 whole entry): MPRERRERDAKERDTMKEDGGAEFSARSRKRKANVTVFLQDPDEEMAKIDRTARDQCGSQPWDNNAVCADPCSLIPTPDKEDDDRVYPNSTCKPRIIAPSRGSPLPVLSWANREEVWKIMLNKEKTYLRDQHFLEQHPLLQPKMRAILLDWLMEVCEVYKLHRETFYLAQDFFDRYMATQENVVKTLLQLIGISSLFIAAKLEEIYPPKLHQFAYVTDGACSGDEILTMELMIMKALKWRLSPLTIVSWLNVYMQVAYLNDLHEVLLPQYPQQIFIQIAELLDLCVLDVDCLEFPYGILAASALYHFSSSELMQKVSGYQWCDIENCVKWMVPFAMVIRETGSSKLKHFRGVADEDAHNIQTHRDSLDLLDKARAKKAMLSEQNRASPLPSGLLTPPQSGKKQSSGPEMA
Chain of G1/S-specific cyclin-D1 (P24385 whole entry): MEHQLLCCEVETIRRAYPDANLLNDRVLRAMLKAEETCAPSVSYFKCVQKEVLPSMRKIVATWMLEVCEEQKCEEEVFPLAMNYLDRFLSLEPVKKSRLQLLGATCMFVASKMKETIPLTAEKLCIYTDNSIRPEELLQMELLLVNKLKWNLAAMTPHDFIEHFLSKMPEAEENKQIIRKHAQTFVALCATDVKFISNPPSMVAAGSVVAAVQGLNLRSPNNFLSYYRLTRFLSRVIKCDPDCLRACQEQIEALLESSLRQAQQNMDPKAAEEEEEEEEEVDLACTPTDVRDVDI

SMILES | pIC50 [1] | pIC50 [2] | pIC50 [3] | pIC50 [4]
Cc1nc(C)c(-c2ccnc(Nc3ccc(N4CCNCC4)cc3)n2)s1 [Aminopyrimidine, 6] | 6.19 | 5.96 |  | 
CNc1nc(C)c(-c2ccnc(Nc3cccc(CNC(C)=O)c3)n2)s1 [Aminopyrimidine, 3] | 6.05 | 6.37 |  | 
CNc1nc(C)c(-c2ccnc(Nc3ccc(N4CCNCC4)cc3)n2)s1 [Aminopyrimidine, 10] | 8.15 |  |  | 
Cc1nc(C)c(-c2ccnc(Nc3ccc(N4CCN(C)CC4)cc3)n2)s1 [Aminopyrimidine, 7] | 6.80 | 5.99 |  | 
COc1ccc(OC)c2c(=S)c3ccccc3[nH]c12 [NSC625987] |  |  | < 4.00 | 6.70
CCNc1nc(C)c(-c2ccnc(Nc3cccc(CN)c3)n2)s1 [Aminopyrimidine, 2] | 6.96 | 6.48 |  | 
Cc1nc(C)c(-c2ccnc(Nc3ccc(N4CCN(CCO)CC4)cc3)n2)s1 [Aminopyrimidine, 8] | 6.37 | 5.66 |  | 
Cc1nc(N)sc1-c1ccnc(Nc2ccc(N3CCOCC3)cc2)n1 [2-amino-4-methyl-1,3-thiazol-5-yl)-N-[4-(morpholin-4-yl)phenyl]pyrimidin-2-amine, 5] | 5.62 |  |  | 
CNc1nc(C)c(-c2ccnc(Nc3cccc(CN)c3)n2)s1 [Aminopyrimidine, 1] | 6.64 | 6.39 |  | 
Cc1nc(C)c(-c2ccnc(Nc3ccc(N4CCOCC4)cc3)n2)s1 [Aminopyrimidine, 5] | 5.40 | 5.70 |  | 
O=C1c2ccccc2-[n+]2ccc3c([nH]c4ccccc43)c21 |  |  | < 4.30 | 6.46
Cc1nc(C)c(-c2ccnc(Nc3ccc(N)cc3)n2)s1 [Aminopyrimidine, 4] | 5.42 | 6.64 |  | 
